Measurements taken from the supplement of paper PMC10307832.

Experiments:
Test in all cases: relative viability (nuclei count vs DMSO), 5 days (fraction); higher = more cells survive
IPA-3 + Navitoclax = compound: C1=CC=C2C(=C1)C=CC(=C2SSC3=C(C=CC4=CC=CC=C43)O)O [IPA-3] + CC1(C)CCC(c2ccc(Cl)cc2)=C(CN2CCN(c3ccc(C(=O)NS(=O)(=O)c4ccc(N[C@H](CCN5CCOCC5)CSc5ccccc5)c(S(=O)(=O)C(F)(F)F)c4)cc3)CC2)C1 [Navitoclax] (partner 0.5 µM)
Method in brief: (§1)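 Dosing by pin tool came one day after lung cancer cell lines were seeded in 1536-well plates, using either one drug or a fixed anchor-drug dose plus five library-drug doses (not always all listed) in √10 steps. After 5 days, nuclei were counted on 4× images. Relative viability is treated-well nuclei count divided by vehicle-well nuclei count, and values are medians of duplicate plates.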

Doramapimod + Luminespib = compound: Cc1ccc(-n2nc(C(C)(C)C)cc2NC(=O)Nc2ccc(OCCN3CCOCC3)c3ccccc23)cc1 [Doramapimod] + CCNC(=O)c1noc(-c2cc(C(C)C)c(O)cc2O)c1-c1ccc(CN2CCOCC2)cc1 [Luminespib] (partner 0.01 µM)
Method in brief: as §1

IPA-3 + Phenformin = compound: C1=CC=C2C(=C1)C=CC(=C2SSC3=C(C=CC4=CC=CC=C43)O)O [IPA-3] + N=C(N)NC(=N)NCCc1ccccc1 [Phenformin] (partner 250 µM)
Method in brief: as §1

Doramapimod + Trametinib = compound: Cc1ccc(-n2nc(C(C)(C)C)cc2NC(=O)Nc2ccc(OCCN3CCOCC3)c3ccccc23)cc1 [Doramapimod] + CC(=O)Nc1cccc(-n2c(=O)n(C3CC3)c(=O)c3c(Nc4ccc(I)cc4F)n(C)c(=O)c(C)c32)c1 [Trametinib] (partner 0.02 µM)
Method in brief: as §1

Cell Line	relative viability (IPA-3 + Navitoclax; first compound 0.2 µM)	relative viability (IPA-3 + Navitoclax; first compound 0.6325 µM)	relative viability (IPA-3 + Navitoclax; first compound 2 µM)	relative viability (IPA-3 + Navitoclax; first compound 6.325 µM)	relative viability (IPA-3 + Navitoclax; first compound 20 µM)	relative viability (Doramapimod + Luminespib; first compound 0.02 µM)	relative viability (Doramapimod + Luminespib; first compound 0.06325 µM)	relative viability (Doramapimod + Luminespib; first compound 0.2 µM)	relative viability (Doramapimod + Luminespib; first compound 0.6325 µM)	relative viability (Doramapimod + Luminespib; first compound 2 µM)	relative viability (IPA-3 + Phenformin; first compound 0.2 µM)	relative viability (IPA-3 + Phenformin; first compound 0.6325 µM)	relative viability (IPA-3 + Phenformin; first compound 2 µM)	relative viability (IPA-3 + Phenformin; first compound 6.325 µM)	relative viability (IPA-3 + Phenformin; first compound 20 µM)	relative viability (Doramapimod + Trametinib; first compound 0.02 µM)	relative viability (Doramapimod + Trametinib; first compound 0.06325 µM)	relative viability (Doramapimod + Trametinib; first compound 0.2 µM)	relative viability (Doramapimod + Trametinib; first compound 0.6325 µM)	relative viability (Doramapimod + Trametinib; first compound 2 µM)
NCI-H1395	1.13	1.05	1.13	1.16	1.57	0.621	0.605	0.641	0.79	0.679	0.46	0.431	0.446	0.479	0.469	0.999	0.967	1.05	1.08	0.946
NCI-H647	1.54	1.02	1.15	0.589	0.554	0.189	0.224	0.151	0.347	0.154	0.8	0.482	0.48	0.371	0.107	0.468	0.445	0.481	0.6	0.523
EKVX	1.05	0.608	1.05	0.851	1.23	0.92	0.868	0.906	0.914	0.77	0.267	0.235	0.238	0.235	0.266	0.32	0.268	0.328	0.352	0.313
NCI-H460	1.45	0.968	1.45	1.04	1.09	0.032	0.0205	0.0311	0.0341	0.0277	0.835	0.501	0.495	0.448	0.446	0.163	0.143	0.135	0.159	0.105
LCLC-97TM1	0.599	0.4	0.36	0.359	0.451	0.789	0.689	0.795	0.705	0.537	0.449	0.447	0.407	0.315	0.46	0.169	0.225	0.249	0.265	0.204
COR-L23	1.11	0.975	1.07	0.983	0.926	0.71	0.659	0.787	0.741	0.541	0.532	0.426	0.471	0.431	0.232	0.675	0.651	0.588	0.607	0.616
NCI-H1355	1.08	0.867	0.999	1.03	1.09	0.721	0.689	0.706	0.723	0.648	0.471	0.448	0.476	0.44	0.482	0.456	0.393	0.376	0.43	0.408
NCI-H1666	1.07	0.981	1.08	0.962	0.863	1.02	1.06	1.06	1.06	1	0.654	0.552	0.547	1.04	0.469	0.84	0.895	0.936	0.907	0.795
